Where a name gives a salt, the structure may show the parent alone.
Legend:
Format in all cases: cell-based
S1P1 [1] = molecular target: T1, S1P1 (Homo sapiens, UniProt P21453); experiment: Tango β-arrestin Recruitment Assay in HEK293 cells (Assay 2a); parameters: linker with TEV protease (N1a) cleavage site (C); host or cells: HEK293, transiently transfected; details: Tango β-arrestin Recruitment Assay, read-out: Assay 2a EC50
Procedure, shortened: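 HEK293 cells transiently expressing S1P1 (TEV-cleavable tTA fusion) with β-arrestin2–TEV; compounds up to 10 μM, 10-point 3-fold, 1% DMSO, 30 min then 16–18 h at 37 °C. Luciferase luminescence normalised to 5 μM S1P as 100% and DMSO as background; EC50 from percent-activity curves.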
Target sequence in this assay (P21453 whole entry, the tested form may be a part): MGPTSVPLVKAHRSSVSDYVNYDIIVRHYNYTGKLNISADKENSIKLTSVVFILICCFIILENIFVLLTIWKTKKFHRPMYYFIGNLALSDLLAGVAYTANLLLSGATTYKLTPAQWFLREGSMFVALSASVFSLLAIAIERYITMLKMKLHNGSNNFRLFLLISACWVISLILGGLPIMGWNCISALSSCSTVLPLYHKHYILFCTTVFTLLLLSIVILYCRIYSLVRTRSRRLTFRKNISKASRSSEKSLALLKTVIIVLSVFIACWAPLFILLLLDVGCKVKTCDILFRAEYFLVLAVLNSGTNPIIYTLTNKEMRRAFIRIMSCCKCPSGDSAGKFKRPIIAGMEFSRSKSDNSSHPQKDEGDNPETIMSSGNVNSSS
Target sequence in this assay (P32121 whole entry partner, the tested form may be a part): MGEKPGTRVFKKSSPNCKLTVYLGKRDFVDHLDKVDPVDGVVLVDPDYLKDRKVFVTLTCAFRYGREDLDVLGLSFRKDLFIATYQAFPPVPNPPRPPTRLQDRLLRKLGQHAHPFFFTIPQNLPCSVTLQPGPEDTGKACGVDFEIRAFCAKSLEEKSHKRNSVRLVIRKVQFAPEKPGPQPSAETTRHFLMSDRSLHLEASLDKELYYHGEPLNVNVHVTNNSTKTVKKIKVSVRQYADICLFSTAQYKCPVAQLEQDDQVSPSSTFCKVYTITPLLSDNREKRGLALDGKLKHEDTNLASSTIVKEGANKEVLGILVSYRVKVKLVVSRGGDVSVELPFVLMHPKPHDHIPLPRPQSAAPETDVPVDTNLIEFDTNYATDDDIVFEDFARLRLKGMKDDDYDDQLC

S1P1 [2] = molecular target: T1, S1P1; experiment: Tango β-arrestin Recruitment Assay in U2OS cells (Assay 2b); parameters: linker with TEV protease (N1a) cleavage site (C); details: Tango β-arrestin Recruitment Assay, read-out: Assay 2b EC50
Procedure, shortened: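 U2OS cells expressing S1P1 and reporter, serum-starved 48 h, treated with compound (10-point 3-fold series, top 1 μM, 1% DMSO) overnight at 37 °C; β-lactamase substrate added 2 h at room temperature. F460/F530 ratio normalised to 1 μM S1P (100%) and DMSO; EC50 from concentration-response.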
Target sequence in this assay (P21453 whole entry, the tested form may be a part): as the sequence (P21453 whole entry, the tested form may be a part) above
Target sequence in this assay (P32121 whole entry partner, the tested form may be a part): as the sequence (P32121 whole entry partner, the tested form may be a part) above

S1P1 [3] = molecular target: T1, S1P1; experiment: CNG cAMP Assay (Assay 1); parameters: host or cells: HEK293 cells expressing the CNG channel; details: read-out: Assay 1 EC50
Procedure, shortened: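 HEK293 cells expressing CNG channel and S1P1, membrane-potential dye loaded; compounds (top 10 μM, 10-point 3-fold, 1.8% DMSO) added with 25 μM Ro 20-1724, 500 nM NECA and 10 nM S1P for 90 min. T90/T0 fluorescence (Ex 350/Em 590 nm) normalised to NECA-alone vs DMSO; EC50 fitted.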
Target sequence in this assay (P21453 whole entry, the tested form may be a part): as the sequence (P21453 whole entry, the tested form may be a part) above

| EC50 (S1P1 [1]) [nM] | EC50 (S1P1 [2]) [nM] | EC50 (S1P1 [3]) [nM] | SMILES |
| --- | --- | --- | --- |
| ≤ 100 | ≤ 100 |  | OC(COc1cc(Cl)c(-c2noc(-c3cn4cc(C(F)(F)F)cc(Cl)c4n3)n2)cc1Cl)C(F)(F)F (stereo not drawn) [Entry 77] |
| ≤ 100 | ≤ 100 |  | CC(=O)COc1cc(Cl)c(-c2noc(-c3cn4cc(C(F)(F)F)cc(Cl)c4n3)n2)cc1Cl [Example 182] |
| ≤ 100 | ≤ 100 | ≤ 100 | NC(CO)COc1ccc(-c2noc(-c3cn4cc(C(F)(F)F)cc(Cl)c4n3)n2)c(Cl)c1 (stereo not drawn) [Example 213, 2-amino-3-[(3-chloro-4-{5-[8-chloro-6-(trifluoromethyl)imidazo[1,2-a]pyridin-2-yl]-1,2,4-oxadiazol-3-yl}phenyl)oxy]propan-1-ol] |
|  | 100 to 500 | ≤ 100 | Oc1cc(Cl)c(-c2nnc(-c3cn4cc(C(F)(F)F)cc(Cl)c4n3)s2)cc1Cl [Example 224, 2,5-dichloro-4-{5-[8-chloro-6-(trifluoromethyl)imidazo[1,2-a]pyridin-2-yl]-1,3,4-thiadiazol-2-yl}phenol] |
|  | ≤ 100 | ≤ 100 | CC(CO)Oc1cc(Cl)c(-c2nc(-c3cn4cc(C(F)(F)F)cc(Cl)c4n3)no2)cc1Cl (stereo not drawn) [Example 227, 2-[(2,5-dichloro-4-{3-[8-chloro-6-(trifluoromethyl)imidazo[1,2-a]pyridin-2-yl]-1,2,4-oxadiazol-5-yl}phenyl)oxy]propan-1-ol] |
|  | 100 to 500 | ≤ 100 | OCC(O)COc1ccc(-c2nnc(-c3cn4cc(C(F)(F)F)cc(Cl)c4n3)s2)c(Cl)c1 (stereo not drawn) [Example 245, 3-[(3-chloro-4-{5-[8-chloro-6-(trifluoromethyl)imidazo[1,2-a]pyridin-2-yl]-1,3,4-thiadiazol-2-yl}phenyl)oxy]propane-1,2-diol] |
| ≤ 100 | ≤ 100 | ≤ 100 | Cc1cc(-c2nnc(-c3cn4cc(C(F)(F)F)cc(Cl)c4n3)s2)cc(C)c1OCC(O)CO (stereo not drawn) [Example 246, 3-[(4-{5-[8-chloro-6-(trifluoromethyl)imidazo[1,2-a]pyridin-2-yl]-1,3,4-thiadiazol-2-yl}-2,6-dimethylphenyl)oxy]propane-1,2-diol] |
|  | 100 to 500 | ≤ 100 | CC(Oc1cc(Cl)c(-c2nnc(-c3cn4cc(C(F)(F)F)cc(Cl)c4n3)s2)cc1F)C(=O)O (stereo not drawn) [Example 250, 2-[(5-chloro-4-{5-[8-chloro-6-(trifluoromethyl)imidazo[1,2-a]pyridin-2-yl]-1,3,4-thiadiazol-2-yl}-2-fluorophenyl)oxy]propanoic acid] |
|  | ≤ 100 | ≤ 100 | CC(CO)Oc1cc(Cl)c(-c2nnc(-c3cn4cc(C(F)(F)F)cc(Cl)c4n3)s2)cc1Cl (stereo not drawn) [Example 251, 2-[(2,5-dichloro-4-{5-[8-chloro-6-(trifluoromethyl)imidazo[1,2-a]pyridin-2-yl]-1,3,4-thiadiazol-2-yl}phenyl)oxy]propan-1-ol] |
| ≤ 100 | ≤ 100 |  | NC(CO)COc1cc(Cl)c(-c2noc(-c3cn4cc(C(F)(F)F)cc(Cl)c4n3)n2)cc1Cl (stereo not drawn) [Example 303, 2-amino-3-[(2,5-dichloro-4-{5-[8-chloro-6-(trifluoromethyl)imidazo[1,2-a]pyridin-2-yl]-1,2,4-oxadiazol-3-yl}phenyl)oxy]propan-1-ol] |
| ≤ 100 | ≤ 100 |  | C[C@@H](O)COc1cc(Cl)c(-c2noc(-c3cn4cc(C(F)(F)F)cc(Br)c4n3)n2)cc1Cl [Example 312, (2R)-1-[(4-{5-[8-bromo-6-(trifluoromethyl)imidazo[1,2-a]pyridin-2-yl]-1,2,4-oxadiazol-3-yl}-2,5-dichlorophenyl)oxy]propan-2-ol] |
| ≤ 100 | ≤ 100 |  | C[C@H](O)COc1cc(Cl)c(-c2noc(-c3cn4cc(C(F)(F)F)cc(Br)c4n3)n2)cc1Cl [Example 313, (2S)-1-[(4-{5-[8-bromo-6-(trifluoromethyl)imidazo[1,2-a]pyridin-2-yl]-1,2,4-oxadiazol-3-yl}-2,5-dichlorophenyl)oxy]propan-2-ol] |
| ≤ 100 | ≤ 100 |  | OC[C@@H](O)COc1cc(Cl)c(-c2noc(-c3cn4cc(C(F)(F)F)cc(Br)c4n3)n2)cc1Cl [Example 317, (2R)-3-[(4-{5-[8-bromo-6-(trifluoromethyl)imidazo[1,2-a]pyridin-2-yl]-1,2,4-oxadiazol-3-yl}-2,5-dichlorophenyl)oxy]propane-1,2-diol] |
| ≤ 100 | ≤ 100 |  | NC(CO)COc1cc(Cl)c(-c2nnc(-c3cn4cc(C(F)(F)F)cc(Cl)c4n3)s2)cc1F (stereo not drawn) [Example 321, 2-amino-3-[(5-chloro-4-{5-[8-chloro-6-(trifluoromethyl)imidazo[1,2-a]pyridin-2-yl]-1,3,4-thiadiazol-2-yl}-2-fluorophenyl)oxy]propan-1-ol] |
| ≤ 100 | ≤ 100 |  | O=P(O)(O)OC[C@H](O)COc1cc(Cl)c(-c2noc(-c3cn4cc(C(F)(F)F)cc(Cl)c4n3)n2)cc1Cl [Example 322, (2R)-3-[(2,5-dichloro-4-{5-[8-chloro-6-(trifluoromethyl)imidazo[1,2-a]pyridin-2-yl]-1,2,4-oxadiazol-3-yl}phenyl)oxy]-2-hydroxypropyl dihydrogen phosphate] |
| ≤ 100 | ≤ 100 |  | C[C@H](COc1cc(Cl)c(-c2noc(-c3cn4cc(C(F)(F)F)cc(Br)c4n3)n2)cc1Cl)OP(=O)(O)O [Example 324, (1R)-2-[(4-{5-[8-bromo-6-(trifluoromethyl)imidazo[1,2-a]pyridin-2-yl]-1,2,4-oxadiazol-3-yl}-2,5-dichlorophenyl)oxy]-1-methylethyl dihydrogen phosphate] |
| ≤ 100 | ≤ 100 |  | C[C@@H](COc1cc(Cl)c(-c2noc(-c3cn4cc(C(F)(F)F)cc(Cl)c4n3)n2)cc1Cl)OS(=O)(=O)O [Example 326, (1S)-2-[(2,5-dichloro-4-{5-[8-chloro-6-(trifluoromethyl)imidazo[1,2-a]pyridin-2-yl]-1,2,4-oxadiazol-3-yl}phenyl)oxy]-1-methylethyl hydrogen sulfate] |
| ≤ 100 | ≤ 100 |  | CC(O)(CO)COc1cc(Cl)c(-c2noc(-c3cn4cc(C(F)(F)F)cc(Cl)c4n3)n2)cc1Cl (stereo not drawn) [Example 330, 3-[(2,5-dichloro-4-{5-[8-chloro-6-(trifluoromethyl)imidazo[1,2-a]pyridin-2-yl]-1,2,4-oxadiazol-3-yl}phenyl)oxy]-2-methylpropane-1,2-diol] |
| ≤ 100 | ≤ 100 |  | N[C@H](CO)COc1cc(Cl)c(-c2nnc(-c3cn4cc(C(F)(F)F)cc(Cl)c4n3)s2)cc1F [Example 334, (2R)-2-Amino-3-[(5-chloro-4-{5-[8-chloro-6-(trifluoromethyl)imidazo[1,2-a]pyridin-2-yl]-1,3,4-thiazol-2-yl}-2-fluorophenyl)oxy]propan-1-ol] |
|  | 100 to 500 |  | N[C@H](CO)COc1cc(Cl)c(-c2nnc(-c3cn4cc(C(F)(F)F)cc(Cl)c4n3)s2)cc1Cl [Example 420, (2R)-2-amino-3-[(2,5-dichloro-4-{5-[8-chloro-6-(trifluoromethyl)imidazo[1,2-a]pyridin-2-yl]-1,3,4-thiadiazol-2-yl}phenyl)oxy]propan-1-ol] |
|  | 100 to 500 |  | NC(CO)COc1cc(Cl)c(-c2nnc(-c3cn4ccc(C(F)(F)F)cc4n3)s2)cc1F (stereo not drawn) [Example 421, 2-amino-3-[(5-chloro-2-fluoro-4-{5-[7-(trifluoromethyl)imidazo[1,2-a]pyridin-2-yl]-1,3,4-thiadiazol-2-yl}phenyl)oxy]propan-1-ol] |
